These are literature values, as cited in US6562827B1, “Heterocyclically substituted amides used as calpain inhibitors” (Abbott Laboratories, priority 1998, dated 2003).

The conditions of data set [1]: known calpain inhibitors.
The test system of data set [2] is calpain. The note with it: result in words, from the literature.
In data set [3] the test system is calpain. The note with it: known calpain inhibitors.
Data set [4] deals with tyrosine kinase pp60src cleaved by calpain. The note with it: activated platelets; Oda et al. J. Biol. Chem. 1993.

For the compound `CC(C)C[C@H](NC(=O)[C@H]1O[C@@H]1C(=O)O)C(=O)NCCCCN=C(N)N` [E 64], the “crossing of cell membranes” value in data set [1] is “only cross the cell membranes with difficulty”. Also, the calpain inhibition result with calpain [2] is “good calpain inhibitors”. The action in cells entry with calpain [3] is recorded as “only a poor action in cells”.

Consider `CCCC[C@@H](C=O)NC(=O)[C@H](CC(C)C)NC(=O)OCc1ccccc1` [calpeptin], for which, in data set [4], the “cleavage of pp60src” value is on record as “can be prevented”.

For the compound `CC(=O)N[C@@H](CC(C)C)C(=O)N[C@@H](CC(C)C)C(=O)N[C@H](C=O)CCCNC(=N)N` [leupeptin], the “crossing of cell membranes” value in data set [1] was “only cross the cell membranes with difficulty”. Moreover, in the data set with calpain [2], the calpain inhibition entry is given as “good calpain inhibitors”. Moreover, the action in cells entry with calpain [3] is listed as “only a poor action in cells”.

On to Ph—CONH—CH(CH2Ph)—CO—COCOOCH3, for which, in the data set with calpain [2], the calpain inhibition entry was “only a weak calpain inhibitor”.
